Consider 35 compounds from patent publication US10034886B2, “GLP-1 receptor modulators” (Celgene International II SÀRL, priority 2014, dated 2018).

Where only a bound is given, the exact number is not on record here.

T1 sequence (P43220 24-463): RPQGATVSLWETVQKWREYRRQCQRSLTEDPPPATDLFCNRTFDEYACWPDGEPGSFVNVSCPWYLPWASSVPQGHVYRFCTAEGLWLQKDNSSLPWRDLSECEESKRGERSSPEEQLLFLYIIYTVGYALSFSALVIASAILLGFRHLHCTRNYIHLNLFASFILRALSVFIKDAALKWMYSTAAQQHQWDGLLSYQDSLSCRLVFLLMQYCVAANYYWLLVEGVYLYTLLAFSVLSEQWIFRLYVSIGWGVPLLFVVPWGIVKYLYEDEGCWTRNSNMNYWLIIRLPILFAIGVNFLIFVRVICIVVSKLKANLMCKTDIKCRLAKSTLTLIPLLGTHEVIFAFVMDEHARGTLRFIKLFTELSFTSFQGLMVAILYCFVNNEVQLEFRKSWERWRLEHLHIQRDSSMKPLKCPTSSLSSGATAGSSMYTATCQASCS
T1 sequence (P01275 100-127 partner limits assumed): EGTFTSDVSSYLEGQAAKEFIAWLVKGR

This assay concerns the target T1, GLP-1R (Homo sapiens, UniProt P43220).
T1 construct: host or cells: GLP-1R CRE-bla CHO-K1 cells
Put plainly: EC20 GLP-1(9-36) PAM cAMP assay: dose response of compound in the presence of fixed concentration of GLP-1(9-36). Format: cell-based. The settings on record: GLP-1R CRE-bla CHO-K1 cells, compound dose response with fixed concentration of GLP-1(9-36), read-out: EC20 GLP-1(9-36) PAM EC50. Put shortly: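 Positive allosteric modulation read as cAMP accumulation: compound titrations (12 points) combined with an EC20 level of GLP-1(9-36) on CHO-K1 GLP-1R CRE-bla cells, IBMX present, 30 min, 37 °C, pH 7.4 buffer. Luminescence converted to cAMP via standards; non-linear fit gave EC50 and Emax.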
In general terms: Cyclic AMP is a second messenger, typically raised through Gs and lowered through Gi signalling.
For the compound `CCc1ccc(C#Cc2cnc(-c3ccc(C[C@H](NC(=O)c4ccc(C(C)(C)C)s4)C(=O)N[C@H](C)C(=O)O)cc3)nc2)cc1` [Compound 1276], the EC50 (as a rule, the concentration at which the effect is half-maximal) lay in the range of 800 to 2500 nM.
For `CCc1ccc(/C=C\c2cnc(-c3ccc(C[C@H](NC(=O)c4ccc(C(C)(C)C)s4)C(=O)N[C@H](C)C(=O)O)cc3)nc2)cc1` [Compound 1277], the EC50 was in the range of 800 to 2500 nM.
As to `CC[C@H]1CC[C@H](c2ccc(-c3cnc(-c4ccc(C[C@H](NC(=O)c5ccc(S(C)(=O)=O)s5)C(=O)N5CC(C(=O)O)C5)cc4)nc3)cc2)CC1` [Compound 1278], the 50% effective concentration (EC50) is less than 800 nM.
Consider `CC[C@H]1CC[C@H](c2ccc(-c3cnc(-c4ccc(C[C@H](NC(=O)Cc5ccc(C(C)(C)C)s5)C(=O)N5CC(C(=O)O)C5)cc4)nc3)cc2)CC1` [Compound 1279], for which the EC50 lay in the range of 2500 to 5000 nM.
As for `CCCCCCCOc1ccc(-c2cnc(-c3ccc(C[C@H](NC(=O)c4ccc(C(C)(C)C)s4)C(=O)N4CC(CN)(C(=O)O)C4)cc3)nc2)cc1` [Compound 1280], the figure is less than 800 nM.
Turning to `CCCCCCCOc1ccc(-c2cnc(-c3ccc(C[C@H](NC(=O)c4ccc(C(C)(C)C)s4)C(=O)N[C@H]4C[C@H](N)C4)cc3)nc2)cc1` [Compound 1281], the EC50 was 2500 to 5000 nM.
As to `C[C@@H](NC(=O)[C@H](Cc1ccc(-c2ncc(-c3ccc(C4CCCCC4)cc3)cn2)cc1)NC(=O)c1ccc(C(C)(C)C)s1)C(=O)O` [Compound 1282], the concentration for a half-maximal effect (EC50) was less than 800 nM.
Under `Cc1ccc(-c2ccc(-c3cnc(-c4ccc(C[C@H](NC(=O)c5ccc(C(C)(C)C)s5)C(=O)N[C@H](C)C(=O)O)cc4)nc3)cc2)cc1` [Compound 1283] stands less than 800 nM; under `C[C@@H](NC(=O)[C@H](Cc1ccc(-c2ncc(-c3cccc(N4CCCCC4)c3)cn2)cc1)NC(=O)c1ccc(C(C)(C)C)s1)C(=O)O` [Compound 1284], 800 to 2500 nM.
As for `Cc1cccc(-c2ccc(-c3cnc(-c4ccc(C[C@H](NC(=O)c5ccc(C(C)(C)C)s5)C(=O)N[C@H](C)C(=O)O)cc4)nc3)cc2)c1` [Compound 1285], the EC50 was less than 800 nM.
Take `CCc1ccc(-c2ccc(-c3cnc(-c4ccc(C[C@H](NC(=O)c5ccc(C(C)(C)C)s5)C(=O)N[C@H](C)C(=O)O)cc4)nc3)cc2)cc1` [Compound 1286]: the EC50 is less than 800 nM.
For `CCOc1ccc(-c2ccc(-c3cnc(-c4ccc(C[C@H](NC(=O)c5ccc(C(C)(C)C)s5)C(=O)N[C@H](C)C(=O)O)cc4)nc3)cc2)cc1` [Compound 1287], the EC50 is 800 to 2500 nM.
Turning to `CCCOc1ccc(-c2ccc(-c3cnc(-c4ccc(C[C@H](NC(=O)c5ccc(C(C)(C)C)s5)C(=O)N[C@H](C)C(=O)O)cc4)nc3)cc2)cc1` [Compound 1288], the EC50 was 800 to 2500 nM.
Consider `C[C@@H](NC(=O)[C@H](Cc1ccc(-c2ncc(-c3ccc(-c4ccccc4)c(F)c3)cn2)cc1)NC(=O)c1ccc(C(C)(C)C)s1)C(=O)O` [Compound 1289], for which the concentration giving a half-maximal response (EC50) is less than 800 nM.
On to `C[C@@H](NC(=O)[C@H](Cc1ccc(-c2ncc(-c3ccc4c(c3)C(=O)c3ccccc3-4)cn2)cc1)NC(=O)c1ccc(C(C)(C)C)s1)C(=O)O` [Compound 1290], for which the half-maximal effective concentration (EC50) was 2500 to 5000 nM.
For the compound `C[C@@H](NC(=O)[C@H](Cc1ccc(-c2ncc(-c3ccc(-c4ccc(C#N)cc4)cc3)cn2)cc1)NC(=O)c1ccc(C(C)(C)C)s1)C(=O)O` [Compound 1291], the EC50 lay within 800 to 2500 nM.
Take `CC(=O)c1ccc(-c2ccc(-c3cnc(-c4ccc(C[C@H](NC(=O)c5ccc(C(C)(C)C)s5)C(=O)N[C@H](C)C(=O)O)cc4)nc3)cc2)cc1` [Compound 1292]: the EC50 is less than 800 nM.
Take `C[C@@H](NC(=O)[C@H](Cc1ccc(-c2ncc(-c3ccc(-c4ccc(Br)cc4)cc3)cn2)cc1)NC(=O)c1ccc(C(C)(C)C)s1)C(=O)O` [Compound 1293]: the EC50 was less than 800 nM.
With `CC(C)CCOc1ccc(-c2ccc(-c3cnc(-c4ccc(C[C@H](NC(=O)c5ccc(C(C)(C)C)s5)C(=O)N[C@H](C)C(=O)O)cc4)nc3)cc2)cc1` [Compound 1294], the half-maximal effective concentration (EC50) was 800 to 2500 nM.
As for `CC(C)Oc1ccc(-c2ccc(-c3cnc(-c4ccc(C[C@H](NC(=O)c5ccc(C(C)(C)C)s5)C(=O)N[C@H](C)C(=O)O)cc4)nc3)cc2)cc1` [Compound 1295], the concentration giving a half-maximal response (EC50) was 800 to 2500 nM.
With `CCCC(C)Oc1ccc(-c2ccc(-c3cnc(-c4ccc(C[C@H](NC(=O)c5ccc(C(C)(C)C)s5)C(=O)N[C@H](C)C(=O)O)cc4)nc3)cc2)cc1` (some centres unmarked) [Compound 1296], the EC50 is 2500 to 5000 nM.
As to `C[C@@H](NC(=O)[C@H](Cc1ccc(-c2ncc(-c3ccc(-c4ccnn4C)cc3)cn2)cc1)NC(=O)c1ccc(C(C)(C)C)s1)C(=O)O` [Compound 1297], the EC50 was 2500 to 5000 nM.
Under `CCC(CC)Oc1ccc(-c2ccc(-c3cnc(-c4ccc(C[C@H](NC(=O)c5ccc(C(C)(C)C)s5)C(=O)N[C@H](C)C(=O)O)cc4)nc3)cc2)cc1` [Compound 1298] stands less than 800 nM; under `C[C@@H](NC(=O)[C@H](Cc1ccc(-c2ncc(-c3ccc4c(c3)Cc3ccccc3-4)cn2)cc1)NC(=O)c1ccc(C(C)(C)C)s1)C(=O)O` [Compound 1299], 800 to 2500 nM.
Turning to `C[C@@H](NC(=O)[C@H](Cc1ccc(-c2ncc(-c3ccc(N4CCCC4)cc3)cn2)cc1)NC(=O)c1ccc(C(C)(C)C)s1)C(=O)O` [Compound 1300], the concentration giving a half-maximal response (EC50) was 800 to 2500 nM.
On to `C[C@@H](NC(=O)[C@H](Cc1ccc(-c2ncc(-c3ccc(SC4CC4)cc3)cn2)cc1)NC(=O)c1ccc(C(C)(C)C)s1)C(=O)O` [Compound 1301], for which the EC50 is 5000 to 10000 nM.
As for `Cc1ccc(-c2ccc(-c3cnc(-c4ccc(C[C@H](NC(=O)c5ccc(C(C)(C)C)s5)C(=O)N[C@H](C)C(=O)O)cc4)nc3)s2)cc1` [Compound 1302], the concentration for a half-maximal effect (EC50) was in the range of 5000 to 10000 nM.
Consider `C[C@@H](NC(=O)[C@H](Cc1ccc(-c2ncc(-c3ccc(-c4ccccc4)nc3)cn2)cc1)NC(=O)c1ccc(C(C)(C)C)s1)C(=O)O` [Compound 1303], for which the half-maximal effective concentration (EC50) lay in the range of 5000 to 10000 nM.
In the case of `C[C@@H](NC(=O)[C@H](Cc1ccc(-c2ncc(-c3ccc4c(c3)C(C)(C)c3ccccc3-4)cn2)cc1)NC(=O)c1ccc(C(C)(C)C)s1)C(=O)O` [Compound 1304], the EC50 lay within 800 to 2500 nM.
As for `C[C@@H](NC(=O)[C@H](Cc1ccc(-c2ncc(-c3ccc(-c4ccc(F)cc4)cc3)cn2)cc1)NC(=O)c1ccc(C(C)(C)C)s1)C(=O)O` [Compound 1305], the figure is less than 800 nM; as for `C[C@@H](NC(=O)[C@H](Cc1ccc(-c2ncc(-c3ccc(C4CC4)cc3)cn2)cc1)NC(=O)c1ccc(C(C)(C)C)s1)C(=O)O` [Compound 1306], 800 to 2500 nM; as for `C[C@@H](NC(=O)[C@H](Cc1ccc(-c2ncc(-c3ccc(N4CCOCC4)cc3)cn2)cc1)NC(=O)c1ccc(C(C)(C)C)s1)C(=O)O` [Compound 1307], 800 to 2500 nM.
With `CCCCCc1ccc(-c2ccc(-c3cnc(-c4ccc(C[C@H](NC(=O)c5ccc(C(C)(C)C)s5)C(=O)N[C@H](C)C(=O)O)cc4)nc3)cc2)cc1` [Compound 1308], the EC50 was in the range of 800 to 2500 nM.
As to `CCCCCOc1ccc(-c2ccc(-c3cnc(-c4ccc(C[C@H](NC(=O)c5ccc(C(C)(C)C)s5)C(=O)N[C@H](C)C(=O)O)cc4)nc3)cc2)cc1` [Compound 1309], the EC50 is 800 to 2500 nM.
In the case of `CCCCC[C@H]1CC[C@H](c2ccc(-c3cnc(-c4ccc(C[C@H](NC(=O)c5ccc(C(C)(C)C)s5)C(=O)N[C@H](C)C(=O)O)cc4)nc3)cc2)CC1` [Compound 1310], the EC50 lay within 2500 to 5000 nM.
